A compilation of properties of binary mixtures (doi:10.1021/je050444g)

Assay: excess molar enthalpy (molar enthalpy of mixing); xn = mol fraction of the nth substance listed
Details: 308.15 K, 100 kPa

CS(C)=O + COC(=O)OC
Details	excess molar enthalpy [kcal/mol]
x1 = 0.0473	0.0447
x1 = 0.0904	0.0755
x1 = 0.1297	0.0989
x1 = 0.1657	0.111
x1 = 0.2296	0.129
x1 = 0.3735	0.147
x1 = 0.5438	0.145
x1 = 0.6414	0.138
x1 = 0.7045	0.127
x1 = 0.7815	0.112
x1 = 0.8267	0.097
x1 = 0.8774	0.077
x1 = 0.9051	0.0631
x1 = 0.9662	0.0246

CC1COC(=O)O1 (stereo unspecified) + CS(C)=O
Details	excess molar enthalpy [kcal/mol]
x2 = 0.0571	0.0186
x2 = 0.108	0.0332
x2 = 0.1538	0.0457
x2 = 0.195	0.0545
x2 = 0.2666	0.0703
x2 = 0.3264	0.0803
x2 = 0.4209	0.0915
x2 = 0.492	0.0989
x2 = 0.6857	0.0949
x2 = 0.7441	0.0856
x2 = 0.8135	0.0712
x2 = 0.9458	0.0263
x2 = 0.9721	0.0139

CCOC(=O)OCC + CS(C)=O
Details	excess molar enthalpy [kcal/mol]
x2 = 0.0666	0.0901
x2 = 0.1249	0.146
x2 = 0.1764	0.183
x2 = 0.2221	0.208
x2 = 0.3635	0.247
x2 = 0.4614	0.252
x2 = 0.6315	0.232
x2 = 0.7199	0.206
x2 = 0.7741	0.179
x2 = 0.8371	0.149
x2 = 0.8727	0.125
x2 = 0.9115	0.0939
x2 = 0.932	0.0755
x2 = 0.9536	0.0547
